Among the data in patent US11266643B2, “Triaryl compounds for treatment of PD-L1 diseases” (CHEMOCENTRYX, INC., priority 2019, dated 2022) are IC50 values, retold here.

In one test the target is human PD-L1 (Homo sapiens (Human), UniProt Q9NZQ7). As to the kind of experiment: Enzyme-Linked Immunosorbent Assay (ELISA), PD-1/PD-L1 binding. Conditions: PD-1/PD-L1 ELISA, human PD-L1 coated plates, Table 1. The essentials: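 Plates coated with […] human PD-L1 overnight at 4° C, blocked, then 1:5 serial compound dilutions added with human PD-1 […] 0.31 μg/mL for 1 h at 37° C. Bound PD-1 detected with streptavidin-HRP and TMB (20 min, 37° C); absorbance read at 450 nm after H2SO4 stop.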
Sequence of human PD-L1 (Q9NZQ7 19-239): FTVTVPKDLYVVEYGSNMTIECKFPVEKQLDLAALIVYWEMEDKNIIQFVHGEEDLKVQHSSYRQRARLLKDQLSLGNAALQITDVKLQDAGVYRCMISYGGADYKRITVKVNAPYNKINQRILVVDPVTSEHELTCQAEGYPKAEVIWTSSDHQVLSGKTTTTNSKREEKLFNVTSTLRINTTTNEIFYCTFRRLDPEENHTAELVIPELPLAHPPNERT
In general terms: An ELISA detects its analyte on a solid surface through an enzyme-linked reagent.
As usually defined, the IC50 is the concentration that inhibits the measured activity by half. In turn, `COc1cc(-c2cccc(-c3cccc(NC(=O)c4ccccn4)c3C)c2C)cc(F)c1CN1CCC[C@H](C(=O)O)C1` [Example 1.355] registered an IC50 of 0.01 to 1 µM.

Turning to `COc1cc(-c2cccc(-c3cccc(NC(=O)C4CCN(CCO)CC4)c3C)c2C)cc(F)c1CN` [Example 1.393], the 50% inhibitory concentration (IC50) was 0.01 to 1 µM. Regarding `COc1cc(-c2cccc(-c3cccc(NC(=O)c4c[nH]c(=O)n(C)c4=O)c3C)c2C)cc(F)c1CN1CC(C(=O)O)C1` [Example 1.283], the IC50 was below 0.01 µM. Same read-out and setting: as for `COc1cc(-c2cccc(-c3cccc(Nc4nccc5nccnc45)c3C)c2C)cc(F)c1CNC1CCOC1` (centres unmarked) [Example 1.213], the figure is below 0.01 µM. Consider `COc1cc(-c2cccc(-c3cccc(NC(=O)c4cccn(C)c4=O)c3C)c2C)cc(F)c1CNCCS(=O)(=O)O` [Example 1.280], for which the IC50 was below 0.01 µM. On the same count and under the same terms, as for `COc1cc(-c2cccc(-c3cccc(NC(=O)c4ccncn4)c3C)c2C)cc(F)c1CN1CC(C(=O)O)C1` [Example 1.367], the figure is below 0.01 µM; as for `COc1cc(-c2cccc(-c3cccc(Nc4cncc5nccnc45)c3C)c2C)cc(F)c1CN1CC(C(=O)O)C1` [Example 1.253], below 0.01 µM; as for `COc1cc(-c2cccc(-c3cccc(NC(=O)c4c[nH]c(=O)n(C)c4=O)c3C)c2C)cc(F)c1CNC[C@H](C)O` [Example 1.223], below 0.01 µM. On the same count and under the same terms, as for `COc1cc(-c2cccc(-c3cccc(NC(=O)c4ccc(C(=O)O)cn4)c3C)c2C)cc(F)c1CNCCO` [Example 1.333], the figure is 0.01 to 1 µM; as for `COc1cc(-c2cccc(-c3cccc(Nc4cccc5c4C(=O)N(C)C5)c3C)c2C)cc(F)c1CN1CC(C(=O)O)C1` [Example 1.250], 0.01 to 1 µM.

In turn, `COc1cc(-c2cccc(-c3cccc(NC(=O)c4cncn(C)c4=O)c3C)c2C)cc(F)c1CN[C@H](C)CO` [Example 1.204] came in with an IC50 below 0.01 µM. The same measure, in the same setting: as for `COc1cc(-c2cccc(-c3cccc(NC(=O)c4ccccn4)c3C)c2C#N)cc(F)c1CN1CC(C(=O)O)C1` [Example 1.356], the figure is 0.01 to 1 µM; as for `COc1cc(-c2cccc(-c3cccc(NC(=O)C4CNCCO4)c3C)c2C)cc(F)c1CN` (centres unmarked) [Example 1.323], 0.01 to 1 µM. Molecule `COc1cc(-c2cccc(-c3cccc(NC(=O)c4ccccn4)c3F)c2C)cc(F)c1CN1CC(C(=O)O)C1` [Example 1.370] displayed a 50% inhibitory concentration (IC50) of 0.01 to 1 µM.

Turning to `COc1cc(-c2cccc(-c3cccc(NC(=O)c4c[nH]c(=O)n(C)c4=O)c3C)c2C)cc(F)c1CNC1CNC1` [Example 1.212], the IC50 lay within 0.01 to 1 µM. Turning to `COc1cc(-c2cccc(-c3cccc(Nc4cccc5nccnc45)c3C)c2C)cc(F)c1CN1CC(C(=O)O)C1` [Example 1.248], the IC50 lay in the range of 0.01 to 1 µM.

The molecule `COc1cc(-c2cccc(-c3cccc(NC(=O)c4cncn(C)c4=O)c3C)c2C)cc(F)c1CN[C@@H]1CNC(=O)C1` [Example 1.209] displayed a half-inhibitory concentration (IC50) below 0.01 µM. As for `COc1cc(-c2cccc(-c3cccc(NC(=O)C4CCCCN4)c3C)c2C)cc(F)c1CN1CC(C(=O)O)C1` (centres unmarked) [Example 1.350], the 50% inhibitory concentration (IC50) fell in the range of 1 to 10 µM. In turn, `COc1cc(-c2cccc(-c3cccc(NC(=O)c4ccccn4)c3C)c2C)cc(F)c1CN1CC(C)(C(=O)O)C1` [Example 1.360] came in with a 50% inhibitory concentration (IC50) below 0.01 µM. Molecule `COc1cc(-c2cccc(-c3cccc(Nc4nccc5cccnc45)c3C)c2C)cc(F)c1CN1CC(C(=O)O)C1` [Example 1.318] had an IC50 of 0.01 to 1 µM. The molecule `COc1cc(-c2cccc(-c3cccc(Nc4nccc5ccn(C)c(=O)c45)c3C)c2C)cc(F)c1CN1CC(C(=O)O)C1` [Example 1.278] displayed a concentration for half-maximal inhibition (IC50) below 0.01 µM. Consider `COc1cc(-c2cccc(-c3cccc(NC(=O)c4ccccn4)c3C)c2C)cc(F)c1CNCCO` [Example 1.396], for which the IC50 is below 0.01 µM.

The same test, now with this note: human PD-1/PD-L1 ELISA, plates coated with human PD-L1.
Molecule `COc1cc(-c2cccc(-c3cccc(NC(=O)c4cn(C)c(=O)n(C)c4=O)c3C)c2C)cc(F)c1CNC1CCNC(=O)C1` (centres unmarked) [Example 1.093] yielded a half-maximal inhibitory concentration (IC50) below 0.01 µM. On the same count and under the same terms, next, `COc1cc(-c2cccc(-c3cccc(NC(=O)c4cn(C)c(=O)n(C)c4=O)c3C)c2F)cc(F)c1CNCC(C)(C)C(N)=O` [Example 1.033]: below 0.01 µM.

Molecule `COc1cc(-c2cccc(-c3cccc(NC(=O)c4cn(C)c(=O)n(C)c4=O)c3C)c2C)cc(F)c1CN[C@@H]1CNC(=O)C1` [Example 1.188] gave an IC50 below 0.01 µM. In turn, `COc1cc(-c2cccc(-c3cccc(Nc4nccc5c4NCCN5)c3C)c2C)cc(F)c1CN[C@@H]1CCC[C@@H]1O` [Example 1.173] showed an IC50 of 0.01 to 1 µM. The same measure, in the same setting: as for `COc1cc(-c2cccc(-c3cccc(NC(=O)c4cncn(C)c4=O)c3C)c2C)cc(F)c1CNC1CCNC(=O)C1` (centres unmarked) [Example 1.103], the figure is below 0.01 µM; as for `COc1cc(-c2cccc(-c3cccc(NC(=O)c4nn(C)c(=O)n(C)c4=O)c3C)c2C)cc(F)c1CN[C@@H]1CNC(=O)C1` [Example 1.105], below 0.01 µM. In turn, `COc1cc(-c2cccc(-c3cccc(NC(=O)c4c[nH]c(=O)n(C)c4=O)c3C)c2C)cc(F)c1CNCC[C@@H]1CCC(=O)N1` [Example 1.109] had an IC50 below 0.01 µM. Take `COc1cc(-c2cccc(-c3cccc(NC(=O)c4cn(C)c(=O)n(C)c4=O)c3C)c2Cl)cc(F)c1CNCC(C)(C)C(N)=O` [Example 1.034]: the concentration for half-maximal inhibition (IC50) is below 0.01 µM. As for `COc1cc(-c2cccc(-c3cccc(NC(=O)c4cccn(C)c4=O)c3C)c2C)cc(F)c1CNC[C@@H]1CCC(=O)N1C` [Example 1.156], the IC50 was below 0.01 µM. For the molecule `COc1cc(-c2cccc(-c3cccc(NC(=O)c4cncn(C)c4=O)c3C)c2C)cc(F)c1CN(C)CC(C)(C)O` [Example 1.166], the IC50 is 0.01 to 1 µM. Consider `COc1cc(-c2cccc(-c3cccc(NC(=O)c4cn(C)c(=O)n(C)c4=O)c3C)c2C)cc(F)c1CNCCC(N)=O` [Example 1.114], for which the IC50 was below 0.01 µM.

`COc1cc(-c2cccc(-c3cccc(NC(=O)c4c[nH]c(=O)n(C)c4=O)c3C)c2C)cc(F)c1CN[C@H]1CCNC1=O` [Example 1.135]: the half-inhibitory concentration (IC50) fell in the range of 0.01 to 1 µM. The molecule `COc1cc(-c2cccc(-c3cccc(NC(=O)c4cncn(C)c4=O)c3C)c2C)cc(F)c1CN[C@@H]1CC[C@H]1O` (racemic) [Example 1.163] had a concentration for half-maximal inhibition (IC50) below 0.01 µM.

In the case of `COc1cc(-c2cccc(-c3cccc(Nc4nccc5c4C(=O)N(C)CC5)c3C)c2C)cc(F)c1CNC(C)C` [Example 1.184], the IC50 lay within 0.01 to 1 µM. In turn, `COc1cc(-c2cccc(-c3cccc(NC(=O)c4cccn(C)c4=O)c3C)c2C)cc(F)c1CN[C@@H]1CCC[C@H]1O` [Example 1.117] came in with a half-maximal inhibitory concentration (IC50) below 0.01 µM. Molecule `COc1cc(-c2cccc(-c3cccc(NC(=O)c4c[nH]c(=O)n(C)c4=O)c3C)c2C)cc(F)c1CNCCCC(N)=O` [Example 1.083] returned an IC50 below 0.01 µM. Regarding `COc1cc(-c2cccc(-c3cccc(NC(=O)c4c[nH]c(=O)n(C)c4=O)c3C)c2C)cc(F)c1CN[C@@H]1CCOC1` [Example 1.049], the IC50 was below 0.01 µM. As for `COc1cc(-c2cccc(-c3cccc(NC(=O)c4nn(C)c(=O)n(C)c4=O)c3C)c2C)cc(F)c1CN[C@@H]1CCCNC1=O` [Example 1.059], the IC50 was in the range of 0.01 to 1 µM.

Staying with this test, now noted: plate-coated human PD-L1, biotinylated Human PD-1, absorbance at 450 nm.
In turn, `COc1cc(-c2cccc(-c3cccc(Nc4nccc5nccnc45)c3C)c2Cl)cc(F)c1CNCC(C)(C)O` [Example 2.112] showed an IC50 below 0.01 µM. For `COc1cc(-c2cccc(-c3cccc(NC(=O)c4cn(C)c(=O)n(C)c4=O)c3C)c2Cl)cc(F)c1CN1CCC2(CCNC2=O)CC1` [Example 2.006], the IC50 lay within 0.01 to 1 µM. Take `COc1cc(-c2cccc(-c3cccc(NC(=O)c4cn(C)c(=O)n(C)c4=O)c3Cl)c2C)cc(F)c1CN(C)C[C@@H]1CCC(=O)N1` [Example 2.100]: the concentration for half-maximal inhibition (IC50) was below 0.01 µM. For the molecule `COc1cc(-c2cccc(-c3cccc(NC(=O)c4cn(C)c(=O)n(C)c4=O)c3Cl)c2F)cc(F)c1CN[C@@H]1CCOC[C@@H]1O` [Example 2.091], the IC50 is below 0.01 µM. For `COc1cc(-c2cccc(-c3cccc(NC(=O)c4cn(C)c(=O)n(C)c4=O)c3Cl)c2Cl)cc(F)c1CN1CCC(C(=O)O)CC1` [Example 2.004], the concentration for half-maximal inhibition (IC50) was below 0.01 µM. For `CCOc1cc(-c2cccc(-c3cccc(NC(=O)c4cn(C)c(=O)n(C)c4=O)c3Cl)c2Cl)cc(F)c1CN[C@H]1CCC(=O)NC1` [Example 2.036], the IC50 was below 0.01 µM. On the same count and under the same terms, next, `COc1cc(-c2cccc(-c3cccc(NC(=O)c4cn(C)c(=O)n(C)c4=O)c3C)c2Cl)cc(F)c1CN[C@H]1CCC[C@H]1O` [Example 2.053]: below 0.01 µM; `COc1cc(-c2cccc(-c3cccc(NC(=O)c4cn(C)c(=O)n(C)c4=O)c3C)c2C)cc(F)c1CN1CC2(CCNC2=O)C1` [Example 2.011]: below 0.01 µM; `COc1cc(-c2cccc(-c3cccc(NC(=O)c4cn(C)c(=O)n(C)c4=O)c3C)c2Cl)cc(F)c1CN(C)[C@@H]1CNC(=O)C1` [Example 2.072]: below 0.01 µM. `CCOc1cc(-c2cccc(-c3cccc(NC(=O)c4cn(C)c(=O)n(C)c4=O)c3C)c2Cl)cc(F)c1CN[C@H]1CCC(=O)NC1` [Example 2.038] displayed an IC50 of 0.01 to 1 µM. `COc1cc(-c2cccc(-c3cccc(NC(=O)c4c[nH]c(=O)n(C)c4=O)c3C)c2Cl)cc(F)c1CN[C@H]1CCOC[C@H]1OC` [Example 2.023] returned an IC50 below 0.01 µM. Take `COc1cc(-c2cccc(-c3cccc(Nc4nccc5nccnc45)c3Cl)c2Cl)cc(F)c1CN[C@@H]1COC[C@@H]1O` [Example 2.110]: the IC50 is below 0.01 µM. Still for that read-out and setting: as for `COc1cc(-c2cccc(-c3cccc(NC(=O)c4cn(C)c(=O)n(C)c4=O)c3C)c2Cl)cc(F)c1CN(C)[C@H]1CNC(=O)C1` [Example 2.061], the figure is 0.01 to 1 µM; as for `COc1cc(-c2cccc(-c3cccc(NC(=O)c4c[nH]c(=O)n(C)c4=O)c3C)c2Cl)cc(F)c1CN[C@@H]1CCOC[C@@H]1O` [Example 2.035], below 0.01 µM. Molecule `COc1cc(-c2cccc(-c3cccc(NC(=O)c4cn(C)c(=O)n(C)c4=O)c3C)c2Cl)cc(F)c1CN(C)[C@@H]1CCOC1` [Example 2.043] came in with a half-maximal inhibitory concentration (IC50) below 0.01 µM. Consider `COc1cc(-c2cccc(-c3cccc(NC(=O)c4cn(C)c(=O)n(C)c4=O)c3C)c2F)cc(F)c1CN[C@@H]1CCOC[C@H]1O` [Example 2.099], for which the IC50 is below 0.01 µM.
